Laboratory results: patent US8153806B2, “Synthesis of 4-amino-thalidomide enantiomers” (The Children's Medical Center Corporation, priority 2000, dated 2012)

Experiments:
[1] = test system: HS-Sultan cells; assay: XTT proliferation assay with HS-Sultan cells; assay type: cell-based; settings: 72 hour treatment, FIG. 1
Source text: The Roche Cell Proliferation Kit II (XTT) is an useful assay for screening the relative efficacy of small molecules. The assay quantitatively determines cellular proliferation in response to agonists and/or antagonists of proliferation. It is based on the cleavage of the yellow tetrazolium salt (XTT) by metabolically active/viable cells to form an orange formazan dye. The formation of the soluble dye allows direct quantification using a scanning mulitwell spectrophotometer. An increase in the number of living cells (resulting from proliferation) results in a greater production of formazan dye which corresponds to an increase in the absorbance value.
When evaluating analogs of thalidomide, or the like, we have employed HS-Sultan cells in an in vitro XTT assay. […] When the treatment/labeling period is complete, the plate is read on a spectrophotometric plate reader at a wavelength of 470 nm and a 650 nm reference wavelength. For individual experiments, the average absorbance values (with background subtracted) for each treatment are plotted against the concentration. A larger absorbance value corresponds to a greater amount of proliferation. A negative control (untreated cells) is used as a point of reference; an absorbance value less than the control reflects inhibition of proliferation. […]

[2] = test system: HsSultan B-cell lymphoma; assay: HsSultan B-cell lymphoma metastatic model in SCID mice; assay type: in vivo; settings: for Activity: mean time to death: daily from two weeks after i.v. cell injection, vehicle 26 days
Protocol: (§1) Antitumor activity has been evaluated for the S(−) and the R(+)4-amino-thalidomide enantiomers as follows. For the HsS cell line, 2 million cells are injected into the tail vein of 8 week old, female, SCID mice. Treatment is initiated after two weeks and continued daily until the mice die or show hind limb paralysis. Results are expressed as mean time to death in treated versus control animals. For the Lewis lung model, 2.5×10(5) cells are injected intravenously into the tail vein of 6-8 week old, male, C57BL/6 mice and treatment is initiated on day three. The time period of treatment is usually 11-15 days in duration. After sacrifice by CO^2 asphyxiation, lungs (where tumors seed and grow) are removed, rinsed in water, patted dry, and weighed. Mean lung weights of age-matched, non-tumor bearing mice are subtracted from the weight of treated, tumor-bearing mice with results expressed as lung weight gain in treated versus control animals. Table 1 summarizes data from in vivo experiments in lung and plasma cell tumor metastatic tumor systems, comparing the antitumor activity of the three enantiomeric preparations of 4-amino thalidomide.

[3] = test system: Lewis lung carcinoma; assay: Lewis lung carcinoma metastatic model in C57BL/6 mice; assay type: in vivo; settings: for Activity: weight gain of lung: 100 mg/kg/day, treatment from day three, vehicle 0.40 g
Protocol: as §1

[4] = test system: bFGF induced neovascularization; assay: Corneal micropocket assay, bFGF pellet; assay type: in vivo, C57BL/6J mice; settings: 50 mg/kg i.p. daily for five days, n=9 each, P<0.0001, FIG. 2
Protocol: (§2) A corneal micropocket assay was performed as described in Kenyon, et al., A Model of Angiogenesis in the Mouse Cornea, Invest. Ophtalmol. & Vis. Sci., 37, 1625-1632 (1996), which is incorporated herein in its entirety. Pellets were used containing 80 ng of bFGF or human recombinat VEGF (R&D Systems, Minneapolis, Minn.) in C57BL/6J mice. […] Differences in VEGF induced neovascularization between S(−)-3APG and control were significant (n=9 each, P<0.001), as were differences between S(−)-3APG and thalidomide (n=9 each, P<0.01).

[5] = test system: VEGF induced neovascularization; assay: Corneal micropocket assay, VEGF pellet; assay type: in vivo, C57BL/6J mice; settings: 50 mg/kg i.p. daily for six days, n=9 each, P<0.001, FIG. 2
Protocol: as §2

Compound | anti-cellular proliferation activity (XTT, treatment over control) [1] | Activity: mean time to death ([2]; 50 mg/kg/day) [days] | Activity: mean time to death ([2]; 200 mg/kg/day) [days] | Activity: weight gain of lung [3] [g] | antitumor activity compared among the enantiomeric preparations of 4-amino thalidomide ([2]; summary of Table 1) | antitumor activity compared among the enantiomeric preparations of 4-amino thalidomide ([3]; summary of Table 1) | difference in bFGF induced neovascularization versus control [4] | difference in VEGF induced neovascularization versus control [5]
Nc1cccc2c1C(=O)N([C@@H]1CCC(=O)NC1=O)C2=O [R(+)-4-amino-thalidomide] | show anti-cellular proliferation activity | 37 | 31 | 0.42 | – | – | – | –
Nc1cccc2c1C(=O)N(C1CCC(=O)NC1=O)C2=O (stereo not drawn) [R, S, 4-amino-thalidomide] | – | 41 | 28 | 0.27 | – | – | – | –
Nc1cccc2c1C(=O)N([C@H]1CCC(=O)NC1=O)C2=O [S(−)-4-amino-thalidomide, S(−)-4-Amino-thalidomide] | show anti-cellular proliferation activity | 47 | 47 | 0.17 | most active enantiomer | most active enantiomer | significant | significant
